Measured values taken from PubChem BioAssay (NCI).
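Test compounds were applied to cells in 96-well plates for 48 hours at 5 doses. GI50 marks 50% less growth. TGI: concentration producing complete growth inhibition.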 Where a SMILES comes first, the peptide text is derived from it.

Experiments:
Experiment in all cases: inhibition of tumour cell growth, NCI panel, 48 h
CAKI-1 renal = system: CAKI-1 renal
HOP-92 NSCLC = system: HOP-92 NSCLC
K-562 leukemia = system: K-562 leukemia
KM12 colon = system: KM12 colon
M14 melanoma = system: M14 melanoma
NCI-H522 lung = system: NCI-H522 lung
SF-268 CNS = system: SF-268 CNS
SF-295 CNS = system: SF-295 CNS
T-47D breast = system: T-47D breast
MOLT-4 leukemia = system: MOLT-4 leukemia

Row | SMILES | TGI (CAKI-1 renal) | TGI (HOP-92 NSCLC) | TGI (K-562 leukemia) | TGI (KM12 colon) | TGI (M14 melanoma) | TGI (NCI-H522 lung) | TGI (SF-268 CNS) | TGI (SF-295 CNS) | TGI (T-47D breast) | GI50 (K-562 leukemia) | GI50 (KM12 colon) | TGI (MOLT-4 leukemia) | GI50 (SF-268 CNS)
1 | CCCCCCCCCCCCCC1=C(O)C(=O)C(CC2=C(O)C(=O)C(CCCCCCCCCCCCC)=C(O)C2=O)=C(O)C1=O | > 100 µM | > 100 µM | > 100 µM | > 100 µM | > 100 µM | > 100 µM | > 100 µM | > 100 µM | > 100 µM |  |  |  | 
2 | CC[C@@]1(O)C(=O)OCc2c1cc1n(c2=O)Cc2cc3ccccc3nc2-1 | 0.0322 µM | 0.131 µM | 45.6 µM | 5.61 µM | 1.8 µM | 0.596 µM | 4.01 µM | 0.0698 µM | 0.635 µM | 0.0514 µM | 0.292 µM | 0.0445 µM | < 0.01 µM
3 | C=C1C(=O)O[C@@H]2/C=C(\C)CC/C=C(\C)CC[C@@]12O | 2.79 µM | 3.63 µM | 12.6 µM | 25 µM | 10.5 µM | 1.38 µM | 13.8 µM | 25.2 µM | 3.33 µM |  |  | 6.15 µM | 
4 | COc1ccccc1CC(C)N (stereo not drawn) | > 100 µM | > 100 µM | > 100 µM | > 100 µM | > 100 µM | > 100 µM | > 100 µM | > 100 µM |  |  |  |  | 
5 | CCN1c2cc(Br)cc3[nH]c(=O)n(c23)CCC1C (stereo not drawn) | 36 µM | 9.25 µM | > 100 µM | 47.4 µM | 34.8 µM |  | 46.1 µM | 39.6 µM | 59.9 µM |  |  | 65.5 µM | 
6 | Nc1[nH]c(=S)nc2nc3c(c(-c4ccccc4)c12)CCCC3 | > 100 µM |  | > 100 µM | > 100 µM | > 100 µM |  | > 100 µM | > 100 µM | > 100 µM |  |  | > 100 µM | 
7 | O=C(CSCC(=O)N/N=C/c1ccccc1)N/N=C\c1ccccc1 | > 100 µM | > 100 µM | > 100 µM | > 100 µM | > 100 µM | > 100 µM | > 100 µM | > 100 µM | > 100 µM |  |  | > 100 µM | 
8 | CCCCCCCCCCCCCCCCCCNc1ccn(C2OC(CO)C(OP(=O)(O)OCC(O)COP(=O)(O)OCC3OC(n4cc(F)c(NCCCCCCCCCCCCCCCCCC)nc4=O)CC3O)C2O)c(=O)n1 (stereo not drawn) | > 50 µM | > 50 µM | > 50 µM | > 50 µM | > 50 µM | > 50 µM | > 50 µM | > 50 µM | > 50 µM |  |  |  | 
9 | O=C(Oc1c(Cl)cc(C2(c3cc(Cl)c(OC(=O)c4ccccc4)c(Cl)c3)CCCCC2)cc1Cl)c1ccccc1 | 18.5 µM | 21.8 µM | 31 µM | 23.9 µM | 30.3 µM | 29.3 µM | 27.2 µM | 28.6 µM | 37.2 µM |  |  | 20.7 µM | 
10 | OC[C@H]1NC[C@@H](O)[C@@H](O)[C@H]1O | > 100 µM | > 100 µM | > 100 µM | > 100 µM | > 100 µM |  |  | > 100 µM | > 100 µM |  |  | > 100 µM | 
11 | CC(C)(C)OC(=O)N1C(OP(=O)(Oc2ccccc2)Oc2ccccc2)=CSc2ccccc21 | 92.3 µM | 80.9 µM | > 100 µM | > 100 µM | 68.6 µM | > 100 µM | > 100 µM | > 100 µM | > 100 µM |  |  | 66 µM | 
12 | CC(C)CCCC(C)[C@H]1CC[C@H]2n3c(nc4ccccc43)CCC[C@]12C (stereo partly drawn) | 34.3 µM | 37.3 µM | 36.5 µM | 52.5 µM | 35.4 µM |  | 43 µM | 30.7 µM | 35.8 µM |  |  | 35.9 µM | 
13 | CCc1n[nH]c(=O)n1/N=C(\C)c1ccc([N+](=O)[O-])cc1 | > 100 µM | > 100 µM | > 100 µM | > 100 µM | > 100 µM |  | > 100 µM | > 100 µM | > 100 µM |  |  | > 100 µM | 
14 | O=C(NC(Cc1ccc(Br)cc1)C(=O)O)c1ccc(I)cc1 (stereo not drawn) | > 100 µM | > 100 µM | > 100 µM | > 100 µM |  | > 100 µM | > 100 µM | > 100 µM |  |  |  | > 100 µM | 
15 | NC(=O)C1CCCN1C(=O)C(N)Cc1ccccc1 (stereo not drawn) (H-Phe-Pro-NH2; configuration not given here) | > 100 µM |  | > 100 µM |  | > 100 µM | > 100 µM | > 100 µM | > 100 µM | > 100 µM |  |  | > 100 µM | 
16 | Clc1cc(Cl)c2cc3cccc[n+]3cc2c1Cl | 21 µM | 21.7 µM | 45.4 µM |  | 39 µM |  | 26.5 µM | 39.8 µM | 23.9 µM |  |  | 31.3 µM | 
17 | Nc1ccc(O)c2c1C(=O)c1c(N)ccc(O)c1C2=O | > 100 µM | > 100 µM | > 100 µM | > 100 µM | > 100 µM | > 100 µM | > 100 µM | > 100 µM |  |  |  | > 100 µM | 
18 | CN(C)CCNC(=O)c1cc(Cl)cc2cc3ccccc3nc12 |  |  |  | 10.1 µM |  |  | 4.53 µM | 2.85 µM |  |  |  |  | 
